Measured values taken from patent EP1171107B1, “USE OF A PHARMACEUTICAL COMPOSITION IN THE MANUFACTURE OF A MEDICAMENT FOR THE TREATMENT OF PATHOLOGICAL CONDITIONS OF THE EYE CAUSED BY BACTERIA, VIRUSES, FUNGI, YEASTS AND PROTOZOA” (Dr. GERHARD MANN chem.-pharm. Fabrik GmbH, priority 1999, dated 2000).

Assays:
Type in all cases: cell-based
[1] = tested on: S.epidermidis; experiment: Quantitative germ count (re-isolation, surface method) after inoculating the test preparation; settings: Ausgangskeimzahl 2,1 x 10^5 KBE/ml
How it was run: (§1)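 Test preparations (5 ml) inoculated with ca. 10^5 CFU/ml of each strain, one tube per time point. After 2, 6, 8, 24, 32, 48 and 72 h, cells pelleted, washed and resuspended in NaCl-peptone buffer, then spiral-plated on Caso agar and incubated at 33±2 °C up to 4 days. Detection limit 100 CFU/ml.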

[2] = tested on: P.aeruginosa; experiment: as above; settings: Ausgangskeimzahl 2,7 x 10^5 KBE/ml
How it was run: as §1

[3] = tested on: P.aeruginosa; experiment: Qualitative examination: enrichment of the inoculated test preparation in broth
How it was run: (§2)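 Test preparations (5 ml) inoculated with ~10^5 CFU/ml; after 2, 6, 8, 24, 32, 48 and 72 h, centrifuged, washed and resuspended in NaCl-peptone buffer. 2 ml enriched in 20 ml Caso broth (Fildes medium for H. influenzae), incubated up to 4 days at 33±2°C; negative enrichment indicates elimination of inoculum.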

[4] = tested on: E.coli; experiment: as above
How it was run: as §2

[5] = tested on: S.aureus; experiment: as above
How it was run: as §2

[6] = tested on: S.epidermidis; experiment: as above
How it was run: as §2

[7] = tested on: Sc. pneumoniae; experiment: as above
How it was run: as §2

[8] = tested on: E.coli; experiment: Quantitative germ count (re-isolation, surface method) after inoculating the test preparation; settings: Ausgangskeimzahl 2,7 x 10^5 KBE/ml
[9] = tested on: S.aureus; experiment: as above; settings: Ausgangskeimzahl 2,6 x 10^5 KBE/ml
How it was run: as §1

[10] = tested on: H.influenzae; experiment: as above; settings: Ausgangskeimzahl 2,8 x 10^5 KBE/ml
How it was run: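 Surviving germs were counted by the surface method: an aliquot was spiral-plated on Kochblut-Agar and incubated at 33±2°C for max. 4 Tage, giving re-isolated counts in KBE/ml with a detection limit of 100 KBE/ml. Initial germ counts were also set by spiral-plater surface plating. The H. influenzae strain was pretested biochemically for identity and purity.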

[11] = tested on: Sc. pneumoniae; experiment: as above; settings: Ausgangskeimzahl 3,7 x 10^5 KBE/ml
How it was run: as §1

CC1COc2c(N3CCN(C)CC3)c(F)cc3c(=O)c(C(=O)O)cn1c23 (stereo not shown) [Ofloxacin 0,3 Gew.-%, Ofloxacin, reference compound]
<100 KBE/ml: Ergebnis der Reisolierung (in KBE/ml) ([1]; 2 h after inoculation) | Ergebnis der Reisolierung (in KBE/ml) ([1]; 4 h after inoculation) | Ergebnis der Reisolierung (in KBE/ml) ([1]; 6 h after inoculation) | Ergebnis der Reisolierung (in KBE/ml) ([1]; 8 h after inoculation) | Ergebnis der Reisolierung (in KBE/ml) ([1]; 24 h after inoculation) | Ergebnis der Reisolierung (in KBE/ml) ([1]; 32 h after inoculation) | Ergebnis der Reisolierung (in KBE/ml) ([1]; 48 h after inoculation) | Ergebnis der Reisolierung (in KBE/ml) ([1]; 72 h after inoculation) | Ergebnis der Reisolierung (in KBE/ml) ([2]; 2 h after inoculation) | Ergebnis der Reisolierung (in KBE/ml) ([2]; 4 h after inoculation) | Ergebnis der Reisolierung (in KBE/ml) ([2]; 6 h after inoculation) | Ergebnis der Reisolierung (in KBE/ml) ([2]; 8 h after inoculation) | Ergebnis der Reisolierung (in KBE/ml) ([2]; 24 h after inoculation) | Ergebnis der Reisolierung (in KBE/ml) ([2]; 32 h after inoculation) | Ergebnis der Reisolierung (in KBE/ml) ([2]; 48 h after inoculation) | Ergebnis der Reisolierung (in KBE/ml) ([2]; 72 h after inoculation) | Ergebnis der Reisolierung (in KBE/ml) ([8]; 2 h after inoculation) | Ergebnis der Reisolierung (in KBE/ml) ([8]; 4 h after inoculation) | Ergebnis der Reisolierung (in KBE/ml) ([8]; 6 h after inoculation) | Ergebnis der Reisolierung (in KBE/ml) ([8]; 8 h after inoculation) | Ergebnis der Reisolierung (in KBE/ml) ([8]; 24 h after inoculation) | Ergebnis der Reisolierung (in KBE/ml) ([8]; 32 h after inoculation) | Ergebnis der Reisolierung (in KBE/ml) ([8]; 48 h after inoculation) | Ergebnis der Reisolierung (in KBE/ml) ([8]; 72 h after inoculation) | Ergebnis der Reisolierung (in KBE/ml) ([9]; 2 h after inoculation) | Ergebnis der Reisolierung (in KBE/ml) ([9]; 4 h after inoculation) | Ergebnis der Reisolierung (in KBE/ml) ([9]; 6 h after inoculation) | Ergebnis der Reisolierung (in KBE/ml) ([9]; 8 h after inoculation) | Ergebnis der Reisolierung (in KBE/ml) ([9]; 24 h after inoculation) | Ergebnis der Reisolierung (in KBE/ml) ([9]; 32 h after inoculation) | Ergebnis der Reisolierung (in KBE/ml) ([9]; 48 h after inoculation) | Ergebnis der Reisolierung (in KBE/ml) ([9]; 72 h after inoculation) | Ergebnis der Reisolierung (in KBE/ml) ([10]; 2 h after inoculation) | Ergebnis der Reisolierung (in KBE/ml) ([10]; 4 h after inoculation) | Ergebnis der Reisolierung (in KBE/ml) ([10]; 6 h after inoculation) | Ergebnis der Reisolierung (in KBE/ml) ([10]; 8 h after inoculation) | Ergebnis der Reisolierung (in KBE/ml) ([10]; 24 h after inoculation) | Ergebnis der Reisolierung (in KBE/ml) ([10]; 32 h after inoculation) | Ergebnis der Reisolierung (in KBE/ml) ([10]; 48 h after inoculation) | Ergebnis der Reisolierung (in KBE/ml) ([10]; 72 h after inoculation) | Ergebnis der Reisolierung (in KBE/ml) ([11]; 2 h after inoculation) | Ergebnis der Reisolierung (in KBE/ml) ([11]; 4 h after inoculation) | Ergebnis der Reisolierung (in KBE/ml) ([11]; 6 h after inoculation) | Ergebnis der Reisolierung (in KBE/ml) ([11]; 8 h after inoculation) | Ergebnis der Reisolierung (in KBE/ml) ([11]; 24 h after inoculation) | Ergebnis der Reisolierung (in KBE/ml) ([11]; 32 h after inoculation) | Ergebnis der Reisolierung (in KBE/ml) ([11]; 48 h after inoculation) | Ergebnis der Reisolierung (in KBE/ml) ([11]; 72 h after inoculation)
+: Ergebnis der Reisolierung qualitiativ (+/-) nach Anreicherung ([3]; 4 h after inoculation) | Ergebnis der Reisolierung qualitiativ (+/-) nach Anreicherung ([5]; 2 h after inoculation) | Ergebnis der Reisolierung qualitiativ (+/-) nach Anreicherung ([5]; 4 h after inoculation) | Ergebnis der Reisolierung qualitiativ (+/-) nach Anreicherung ([5]; 6 h after inoculation) | Ergebnis der Reisolierung qualitiativ (+/-) nach Anreicherung ([6]; 2 h after inoculation) | Ergebnis der Reisolierung qualitiativ (+/-) nach Anreicherung ([6]; 4 h after inoculation) | Ergebnis der Reisolierung qualitiativ (+/-) nach Anreicherung ([6]; 6 h after inoculation) | Ergebnis der Reisolierung qualitiativ (+/-) nach Anreicherung ([7]; 4 h after inoculation)
-: Ergebnis der Reisolierung qualitiativ (+/-) nach Anreicherung ([3]; 2 h after inoculation) | Ergebnis der Reisolierung qualitiativ (+/-) nach Anreicherung ([3]; 6 h after inoculation) | Ergebnis der Reisolierung qualitiativ (+/-) nach Anreicherung ([3]; 8 h after inoculation) | Ergebnis der Reisolierung qualitiativ (+/-) nach Anreicherung ([3]; 24 h after inoculation) | Ergebnis der Reisolierung qualitiativ (+/-) nach Anreicherung ([3]; 32 h after inoculation) | Ergebnis der Reisolierung qualitiativ (+/-) nach Anreicherung ([3]; 48 h after inoculation) | Ergebnis der Reisolierung qualitiativ (+/-) nach Anreicherung ([3]; 72 h after inoculation) | Ergebnis der Reisolierung qualitiativ (+/-) nach Anreicherung ([4]; 2 h after inoculation) | Ergebnis der Reisolierung qualitiativ (+/-) nach Anreicherung ([4]; 4 h after inoculation) | Ergebnis der Reisolierung qualitiativ (+/-) nach Anreicherung ([4]; 6 h after inoculation) | Ergebnis der Reisolierung qualitiativ (+/-) nach Anreicherung ([4]; 8 h after inoculation) | Ergebnis der Reisolierung qualitiativ (+/-) nach Anreicherung ([4]; 24 h after inoculation) | Ergebnis der Reisolierung qualitiativ (+/-) nach Anreicherung ([4]; 32 h after inoculation) | Ergebnis der Reisolierung qualitiativ (+/-) nach Anreicherung ([4]; 48 h after inoculation) | Ergebnis der Reisolierung qualitiativ (+/-) nach Anreicherung ([4]; 72 h after inoculation) | Ergebnis der Reisolierung qualitiativ (+/-) nach Anreicherung ([5]; 8 h after inoculation) | Ergebnis der Reisolierung qualitiativ (+/-) nach Anreicherung ([5]; 24 h after inoculation) | Ergebnis der Reisolierung qualitiativ (+/-) nach Anreicherung ([5]; 32 h after inoculation) | Ergebnis der Reisolierung qualitiativ (+/-) nach Anreicherung ([5]; 48 h after inoculation) | Ergebnis der Reisolierung qualitiativ (+/-) nach Anreicherung ([5]; 72 h after inoculation) | Ergebnis der Reisolierung qualitiativ (+/-) nach Anreicherung ([6]; 8 h after inoculation) | Ergebnis der Reisolierung qualitiativ (+/-) nach Anreicherung ([6]; 24 h after inoculation) | Ergebnis der Reisolierung qualitiativ (+/-) nach Anreicherung ([6]; 32 h after inoculation) | Ergebnis der Reisolierung qualitiativ (+/-) nach Anreicherung ([6]; 48 h after inoculation) | Ergebnis der Reisolierung qualitiativ (+/-) nach Anreicherung ([6]; 72 h after inoculation) | Ergebnis der Reisolierung qualitiativ (+/-) nach Anreicherung ([7]; 2 h after inoculation) | Ergebnis der Reisolierung qualitiativ (+/-) nach Anreicherung ([7]; 6 h after inoculation) | Ergebnis der Reisolierung qualitiativ (+/-) nach Anreicherung ([7]; 8 h after inoculation) | Ergebnis der Reisolierung qualitiativ (+/-) nach Anreicherung ([7]; 24 h after inoculation) | Ergebnis der Reisolierung qualitiativ (+/-) nach Anreicherung ([7]; 32 h after inoculation) | Ergebnis der Reisolierung qualitiativ (+/-) nach Anreicherung ([7]; 48 h after inoculation) | Ergebnis der Reisolierung qualitiativ (+/-) nach Anreicherung ([7]; 72 h after inoculation)
